In patent publication US9737078B2, “Compositions comprising a biological control agent and an insecticide” (priority 2012, dated 2017):

Legend:
[1] = tested on: Tetranychus urticae; assay: Tetranychus urticae spray test, OP-resistant, French beans; assay type: in vivo
Method: (§1) For all examples efficiencies of the compositions comprising at least one BCA and at least one specific insecticide has been determined by the “Colby-formula”: The expected efficacy of a given combination of two compounds is calculated as follows (see Colby, S. R., “Calculating Synergistic and antagonistic Responses of Herbicide Combinations”, Weeds 15, pp. 20-22, 1967):
(§2) If • X is the efficacy expressed in % mortality of the untreated control for test compound A at a concentration of m ppm respectively m g/ha, • Y is the efficacy expressed in % mortality of the untreated control for test compound B at a concentration of n ppm respectively n g/ha, • E is the efficacy expressed in % mortality of the untreated control using the mixture of A and B at m and n ppm respectively m and n g/ha, • then is E=X+Y−(X×Y/100)
(§3) If the observed insecticidal efficacy of the combination is higher than the one calculated as “E”, then the combination of the two compounds is more than additive, i.e., there is a synergistic effect.
(§4) To produce a suitable preparation of active compound, 1 part by weight of active compound is mixed with the stated amount of solvent and emulsifier, and the concentrate is diluted with emulsifier-containing water to the desired concentration. To produce a suitable preparation of a spore suspension the spores are diluted with emulsifier-containing water to the desired concentration. French beans (Phaseolus vulgaris) which are heavily infested with all stages of the two spotted spidermite (Tetranychus urticae), are sprayed with a preparation of the active ingredient of the desired concentration.
After the specified period of time, mortality in % is determined. 100% means all spider mites have been killed and 0% means none of the spider mites have been killed. The mortality values determined thus are recalculated using the Colby-formula (see above).

[2] = tested on: Myzus persicae; assay: Myzus persicae spray test (MYZUPE), Chinese cabbage leaf-disks; assay type: in vivo
Method: as §1, §2, §3
as §4, with “Chinese cabbage (Brassica pekinensis) leaf-disks infected” for “French beans (Phaseolus vulgaris) which are heavily infested”, “instars” for “stages”, “green peach aphid (Myzus persicae),” for “two spotted spidermite (Tetranychus urticae),”
After the specified period of time, mortality in % is determined. 100% means all aphids have been killed; 0% means none of the aphids have been killed. The mortality values determined thus are recalculated using the Colby-formula (see above).

Compound | Efficacy in % after 6d (mortality) ([1]; 0.8 g ai/ha, after 6 d) | Efficacy in % after 2d (mortality) ([1]; 4 g ai/ha, after 2 d) | Efficacy in % after 6d (mortality) ([2]; 20 g/ha) | mortality at 20 g/ha ([1]; Tetranychus urticae, 48 h, 20 g ai/ha, after 2 d, read-out: Efficacy in % after 2d (mortality)) | mortality at 0.8 g/ha ([1]; Tetranychus urticae, 144 h, 0.8 g ai/ha, after 6 d, read-out: Efficacy in % after 6d (mortality)) | mortality at 0.8 g/ha ([2]; Myzus persicae, 144 h, 0.8 g/ha, after 6 d, read-out: Efficacy in % after 6d (mortality)) | mortality at 4 g/ha ([2]; Myzus persicae, 144 h, 4 g/ha, after 6 d, read-out: Efficacy in % after 6d (mortality))
Cc1cc(C)c(C2=C(OC(=O)CC(C)(C)C)C3(CCCC3)OC2=O)c(C)c1 [Spiromesifen (1222), Spiromesifen] | 0% | 0% | 70% |  |  |  | 
CCOC(=O)OC1=C(c2cc(C)ccc2C)C(=O)N[C@]12CC[C@@H](OC)CC2 [Spirotetramate (1223), Spirotetramat] |  |  |  | 0% | 0% | 0% | 70%
